Laboratory results from patent publication US20220193072A1, “METHODS OF TREATING BREAST CANCER WITH TETRAHYDRONAPHTHALENE DERIVATIVES AS ESTROGEN RECEPTOR DEGRADER” (Arvinas Operations, Inc., priority 2020, published 2022).
Values joined by “and” are separate entries in the source; they are usually repeats but may differ in a detail not shown here. Identical values can stand only once. Like-named read-outs stand apart in the source and are kept apart here.

Legend:
[1] = 28-day oral toxicology study in dogs; assay type: in vivo; conditions: oral once daily 28 days
ER-dependent cell lines = test: Cell proliferation of ER-dependent cell lines; assay type: cell-based
MCF7 cells = test: Live-cell imaging growth studies and EC50 for growth inhibition, MCF7; assay type: cell-based; conditions: Homo sapiens, read-out: Approximate Half-maximal Effective Concentration (EC50) for growth inhibition
Description: (§1) MCF7, T47D, T47D ESR1 Y537S or T47D ESR1 D538G cells were seeded at 2×10^5 density per well in 6-well tissue culture-treated plates in DMEM/F12/10% FBS (2 mL total volume). […] The plate was then placed in the Incucyte® S3 Live-Cell Analysis System and images were acquired every 4 hours for a total of 5 days (120 hours). Data were analyzed using the Incucyte® Software v2020C which quantified cell surface area coverage as confluence values. Relative growth was calculated for all timepoints for all growth conditions relative to the confluence value observed for the control at 120 hours. Graphing and statistical analyses were performed using Graphpad Prism (GraphPad Software).

[2] = system: cell lines expressing ESR1 variants Y537S and D538G; test: Growth of cell lines expressing ESR1 variants; assay type: cell-based
ERα = molecular target: T1, ERα (Homo sapiens, UniProt P03372); test: In vivo ERα degradation in MCF7 xenograft tumors (immunoblot); design: species or system NOD/SCID mice; conditions: for % ERα ↓: MCF7/estradiol model
T1 construct: robustly degrades ER in ER-positive breast cancer cell lines; endogenous in cells; host or cells: MCF7, T47D (cell culture); MCF7 and tamoxifen-resistant MCF7 xenograft tumours in mice
T1 sequence (P03372 1-595): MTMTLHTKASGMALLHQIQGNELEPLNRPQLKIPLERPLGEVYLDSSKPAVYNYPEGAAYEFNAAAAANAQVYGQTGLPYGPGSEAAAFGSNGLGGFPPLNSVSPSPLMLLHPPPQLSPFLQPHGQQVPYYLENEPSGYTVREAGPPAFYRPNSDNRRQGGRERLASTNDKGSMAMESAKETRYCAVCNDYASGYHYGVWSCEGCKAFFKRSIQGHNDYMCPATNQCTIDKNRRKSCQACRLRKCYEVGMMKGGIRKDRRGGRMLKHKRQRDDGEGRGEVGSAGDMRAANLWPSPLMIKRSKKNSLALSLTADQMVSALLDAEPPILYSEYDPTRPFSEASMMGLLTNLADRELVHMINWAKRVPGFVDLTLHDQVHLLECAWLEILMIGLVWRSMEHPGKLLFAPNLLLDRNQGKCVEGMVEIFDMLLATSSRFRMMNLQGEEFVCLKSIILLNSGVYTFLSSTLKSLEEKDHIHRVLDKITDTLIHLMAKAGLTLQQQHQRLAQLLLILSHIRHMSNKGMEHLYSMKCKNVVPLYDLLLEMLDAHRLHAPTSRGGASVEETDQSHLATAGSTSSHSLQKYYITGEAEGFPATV
Description: Approximately 18 hours after the final administration, mice were sacrificed, and MCF7 xenografts were harvested and lysed to determine ER levels by immunoblotting. […] Diet was supplemented with peanut butter to help maintain body weights.
Species: NOD/SCID female mice (Charles River, 6-7 weeks old upon arrival).
Animal handling: Axial mammary fat pad implantation of 5×10^6 MCF7 cells/200 per mouse (17β-estradiol 0.36 mg 90-day pellet implanted day before).
Dosing: Oral (gavage), once a day (QD) for 3 days (QD×3). Vehicle: 2% Tween80/PEG400 (‘PEG/Tween’).
Sampling: Terminal sacrifice was ˜18 hrs after last dose; tumors were harvested, divided and flash frozen. ERα levels were determined by immunoblotting.
Cell Lysis: flash frozen tumors were removed from −80° C. storage and placed on dry ice. RIPA lysis buffer and Halt protease inhibitors were used at 400 μl per tumor sample. A steel ball (5 mm) was placed in each sample for tissue disruption. Samples were lysed with TissueLyzer at 24 Hz for 4 minutes. The homogenization was stopped half way through the process and the block flipped over for the duration of the process. Steel beads were pulled out of the tubes and the lysates were spun down at 21,000×g for 15 minutes at 4° C. Lysates were then measured for total protein concentration by BCA (per manufacturer's protocol).
Detection of proteins by immunoblot: lysates were mixed with sample buffer and reducing agent (per manufacturer's protocol). Samples were denatured at 95° C. for 5 minutes in thermal cycler. Samples were cooled and spun down (5000×g; 1 minute) prior to loading on gel. Gels were loaded with 10 μg total protein per lane. Samples were loaded on 4-15% Criterion Tris/Glycine gels and run for 25 minutes at 250 constant volts in 1×Tris/Glycine/SDS buffer. Protein was transferred from gels to nitrocellulose with Bio-Rad Turbo on default setting. All blots were rinsed with distilled water and blocked for 1 hour at RT in 5% BSA in TBS-T (TBS with 0.1% Tween) on rocker. The blots were cut so that beta-actin and ERα can be detected from the same lane/sample.
Blots were incubated with primary antibody in 5% BSA in TBST (0.1%) overnight at 4° C. on rocker:
Blot was washed with TBST (0.1%) three times for 5 minutes on rocker at RT. Secondary antibody was added, and blots incubated at RT on rocker for 1 hour (1:18,000 anti-rabbit-HRP in TBS-T). Blots were washed 3 times in TBST (0.1%) for 5 minutes at RT on the rocker. Signal was developed with Pierce WestFemto maximum sensitivity substrate for 5 minutes and blots imaged on BioRad ChemiDoc.
Sampling: Tumors were measured twice weekly. Terminal sacrifice was ˜18 hr after last dose; tumors were harvested, divided, and flash frozen. ERα levels were determined by immunoblotting.
At study termination, the tumors were removed from the mice, and ERα levels were determined by immunoblotting the tumor homogenates.
Sampling: tumors were measured twice weekly. Terminal sacrifice was ˜18 hr after last dose; tumors were harvested, divided, and flash frozen. ERα levels were determined by immunoblotting.

estrogen receptor = test: In vitro ER degradation in ER-positive breast cancer cell lines (DC50); conditions: wild-type and variant ERα expressing cell lines
T47D ESR1 D538G cells = test: Live-cell imaging growth studies and EC50 for growth inhibition, T47D ESR1 D538G; assay type: cell-based; conditions: Homo sapiens; T47D ESR1 D537G (so in the source); read-out: Approximate Half-maximal Effective Concentration (EC50) for growth inhibition
Description: as §1

[3] = Preclinical pharmacokinetics, oral once daily; conditions: in vivo, total drug concentrations; for AUC(0-t): read-out: Mean AUC0-24
From the text: The pharmacokinetic results are shown below in Table 1.

O=C1CC[C@H](N2Cc3cc(N4CCN(CC5CCN(c6ccc([C@@H]7c8ccc(O)cc8CC[C@@H]7c7ccccc7)cc6)CC5)CC4)ccc3C2=O)C(=O)N1 [Compound (I-c), (3S)-3-[5-[4-[[1-[4-[(1R,2S)-6-hydroxy-2-phenyl-tetralin-1-yl]phenyl]-4-piperidyl]methyl]piperazin-1-yl]-1-oxo-isoindolin-2-yl]piperidine-2,6-dione]
clinical signs of toxicity ([1]; doses up to 90 mg/kg/day): no clinical signs of toxicity
effects on overall animal health or well-being ([1]; up to 90 mg/kg/day): no effects on the overall animal health or well-being
cell proliferation of ER-dependent cell lines (ER-dependent cell lines): inhibits
EC50 (MCF7 cells): 10 nM
growth of cell lines expressing ESR1 variants Y537S and D538G [2]: inhibits growth
reduction of tumor ERα levels vs vehicle (ERα; 10 mg/kg p.o. once daily x 3 days, ~18 h after last dose): up to 95%
reduction of tumor ERα levels vs vehicle (ERα; 3, 10 and 30 mg/kg daily oral, 28 days (all doses), at study termination): > 94% and > 90%
% ERα ↓ (ERα; 3 mg/kg): 95%
% ERα ↓ (ERα; 10 mg/kg): 97%
% ERα ↓ (ERα; 30 mg/kg): 94%
ERα degradation potency (estrogen receptor): single-digit nanomolar
EC50 (T47D ESR1 D538G cells): 10 nM
Cmax ([3]; 3 mg/kg oral once daily): 84 ng/mL
AUC(0-t) ([3]; 3 mg/kg oral once daily): 658 ng·h/mL
Cmax ([3]; 10 mg/kg oral once daily): 312 ng/mL
AUC(0-t) ([3]; 10 mg/kg oral once daily): 2540 ng·h/mL
Cmax ([3]; 30 mg/kg oral, single dose): 962 ng/mL
AUC(0-t) ([3]; 30 mg/kg oral, single dose): 5720 ng·h/mL
